In patent US20240101540A1, “TARGETED PROTEIN DEGRADATION OF PARP14 FOR USE IN THERAPY” (Ribon Therapeutics, Inc., priority 2022, published 2024):
Where two headings read alike, the source gives them in different places.

Molecular target: T1, catalytic domain of human PARP14 (residues 1611 to 1801) with NanoLuc tag (Homo sapiens, UniProt Q460N5)
T1 construct: expressed in transfected cells; host or cells: HEK-293T cells (ATCC), pcDNA3.1(-) vector
T1 sequence (Q460N5 1611-1801): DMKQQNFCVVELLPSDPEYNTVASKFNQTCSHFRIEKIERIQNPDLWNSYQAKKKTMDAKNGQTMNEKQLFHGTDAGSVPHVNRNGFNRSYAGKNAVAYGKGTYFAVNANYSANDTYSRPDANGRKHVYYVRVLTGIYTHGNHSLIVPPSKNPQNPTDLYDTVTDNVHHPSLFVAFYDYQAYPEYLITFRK
Experiment: NanoLuc assay for the degradation of PARP14 (NanoLuc-tagged PARP14 overexpressed in HEK-293T cells, 2 hours)
Assay type: cell-based
Details: Assay A (Example A): NanoLuc-tagged PARP14 degradation in HEK-293T cells

SMILES	DC50 (read-out: DC50) [nM]	DC50 [nM]
O=C1CCC(Nc2ccc(N3C4CC3CN(CCN3CCC(COc5cc(F)c6c(=O)[nH]c(CSC7CCOCC7)nc6c5)CC3)C4)cc2)C(=O)N1 (centres unmarked) [Example 71, 3-((4-(3-(2-(4-(((5-fluoro-4-oxo-2-(((tetrahydro-2H-pyran-4-yl)thio)methyl)-3,4-dihydroquinazolin-7-yl)oxy)methyl)piperidin-1-yl)ethyl)-3,6-diazabicyclo[3.1.1]heptan-6-yl)phenyl)amino)piperidine-2,6-dione]	< 100	–
O=C1CCC(N2C(=O)c3ccc(C#CC4CCN(CCN5CCC(COc6cc(F)c7c(=O)[nH]c(CSC8CCOCC8)nc7c6)CC5)CC4)cc3C2=O)C(=O)N1 (centres unmarked) [Example 72, 2-(2,6-dioxopiperidin-3-yl)-5-((1-(2-(4-(((5-fluoro-4-oxo-2-(((tetrahydro-2H-pyran-4-yl)thio)methyl)-3,4-dihydroquinazolin-7-yl)oxy)methyl)piperidin-1-yl)ethyl)piperidin-4-yl)ethynyl)isoindoline-1,3-dione]	< 100	–
O=C1CCC(Nc2ccc(N3CC4CC(C3)N4CCN3CCC(COc4cc(F)c5c(=O)[nH]c(CSC6CCOCC6)nc5c4)CC3)cc2)C(=O)N1 (centres unmarked) [Example 73, 3-((4-(6-(2-(4-(((5-fluoro-4-oxo-2-(((tetrahydro-2H-pyran-4-yl)thio)methyl)-3,4-dihydroquinazolin-7-yl)oxy)methyl)piperidin-1-yl)ethyl)-3,6-diazabicyclo[3.1.1]heptan-3-yl)phenyl)amino)piperidine-2,6-dione]	< 100	–
Cn1nc(N2CCC(=O)NC2=O)c2ccc(C3CCN(CCN4CCC(COc5cc(F)c6c(=O)[nH]c(CSC7CCOCC7)nc6c5)CC4)CC3)cc21 [Example 74, 1-(6-(1-(2-(4-(((5-fluoro-4-oxo-2-(((tetrahydro-2H-pyran-4-yl)thio)methyl)-3,4-dihydroquinazolin-7-yl)oxy)methyl)piperidin-1-yl)ethyl)piperidin-4-yl)-1-methyl-1H-indazol-3-yl)dihydropyrimidine-2,4(1H,3H)-dione]	< 100	–
Cn1nc(N2CCC(=O)NC2=O)c2ccc(N3CCN(CCN4CCC(COc5cc(F)c6c(=O)[nH]c(CSC7CCOCC7)nc6c5)CC4)CC3)cc21 [Example 75, 1-(6-(4-(2-(4-(((5-fluoro-4-oxo-2-(((tetrahydro-2H-pyran-4-yl)thio)methyl)-3,4-dihydroquinazolin-7-yl)oxy)methyl)piperidin-1-yl)ethyl)piperazin-1-yl)-1-methyl-1H-indazol-3-yl)dihydropyrimidine-2,4(1H,3H)-dione]	< 100	–
O=C1CCC(Nc2ccc(O[C@@H]3C[C@@H]4CN(CCN5CCC(COc6cc(F)c7c(=O)[nH]c(CSC8CCOCC8)nc7c6)CC5)C[C@@H]4C3)cc2)C(=O)N1 (stereo partly drawn) [Example 76, 3-((4-(((3aR,51,6aS)-2-(2-(4-(((5-fluoro-4-oxo-2-(((tetrahydro-2H-pyran-4-yl)thio)methyl)-3,4-dihydroquinazolin-7-yl)oxy)methyl)piperidin-1-yl)ethyl)octahydrocyclopenta[c]pyrrol-5-yl)oxy)phenyl)amino)piperidine-2,6-dione]	< 100	–
O=C1CCN(c2ccc(C3CCN(CCN4CCC(COc5cc(F)c6c(=O)[nH]c(CSC7CCOCC7)nc6c5)CC4)CC3)cc2)C(=O)N1 [Example 77, 1-(4-(1-(2-(4-(((5-fluoro-4-oxo-2-(((tetrahydro-2H-pyran-4-yl)thio)methyl)-3,4-dihydroquinazolin-7-yl)oxy)methyl)piperidin-1-yl)ethyl)piperidin-4-yl)phenyl)dihydropyrimidine-2,4(1H,3H)-dione]	< 100	–
Cn1c(=O)n(C2CCC(=O)NC2=O)c2ccc(C3CCN(CCN4CCC(COc5cc(F)c6c(=O)[nH]c(CSC7CCOCC7)nc6c5)CC4)CC3)cc21 (centres unmarked) [Example 78, 3-(5-(1-(2-(4-(((5-fluoro-4-oxo-2-(((tetrahydro-2H-pyran-4-yl)thio)methyl)-3,4-dihydroquinazolin-7-yl)oxy)methyl)piperidin-1-yl)ethyl)piperidin-4-yl)-3-methyl-2-oxo-2,3-dihydro-1H-benzo[d]imidazol-1-yl)piperidine-2,6-dione]	< 100	–
O=C1CCC(N2C(=O)c3ccc(OC4CC(CN5CCC(COc6cc(F)c7c(=O)[nH]c(CSC8CCOCC8)nc7c6)CC5)C4)cc3C2=O)C(=O)N1 (centres unmarked) [Example 79a, 2-(2,6-dioxopiperidin-3-yl)-5-((1r,3r)-3-((4-(((5-fluoro-4-oxo-2-(((tetrahydro-2H-pyran-4-yl)thio)methyl)-3,4-dihydroquinazolin-7-yl)oxy)methyl)piperidin-1-yl)methyl)cyclobutoxy)isoindoline-1,3-dione]	< 100	–
O=C1CCC(Nc2ccc(OC3CC(N4CCC(COc5cc(F)c6c(=O)[nH]c(CSC7CCOCC7)nc6c5)CC4)C3)cc2)C(=O)N1 (centres unmarked) [Example 81, 3-((4-(3-(4-(((5-fluoro-4-oxo-2-(((tetrahydro-2H-pyran-4-yl)thio)methyl)-3,4-dihydroquinazolin-7-yl)oxy)methyl)piperidin-1-yl)cyclobutoxy)phenyl)amino)piperidine-2,6-dione]	< 100	–
O=C1CCC(Nc2ccc(N3CCN(CCN4CCC(COc5cc(F)c6c(=O)[nH]c(CCC7CCOCC7)nc6c5)CC4)CC3)cc2)C(=O)N1 (centres unmarked) [Example 82, 3-((4-(4-(2-(4-(((5-fluoro-4-oxo-2-(2-(tetrahydro-2H-pyran-4-yl)ethyl)-3,4-dihydroquinazolin-7-yl)oxy)methyl)piperidin-1-yl)ethyl)piperazin-1-yl)phenyl)amino)piperidine-2,6-dione]	–	< 100
O=C1CCC(Nc2ccc(N3CCN(CCN4CCC(COc5cc(F)c6c(=O)[nH]c(CS[C@H]7CC[C@H](O)CC7)nc6c5)CC4)CC3)cc2)C(=O)N1 (some centres unmarked) [Example 83, 3-((4-(4-(2-(4-(((5-fluoro-2-((((1r,4r)-4-hydroxycyclohexyl)thio)methyl)-4-oxo-3,4-dihydroquinazolin-7-yl)oxy)methyl)piperidin-1-yl)ethyl)piperazin-1-yl)phenyl)amino)piperidine-2,6-dione]	< 100	–

More lines, main results first:

DC50 (read-out: DC50) [nM]	SMILES	DC50 [nM]
< 100	O=C1CCC(N2C(=O)c3ccc(N4CCN(CCN5CCC(COc6cc(F)c7c(=O)[nH]c(CSC8CCOCC8)nc7c6)CC5)CC4)cc3C2=O)C(=O)N1 (centres unmarked) [Example 62, 2-(2,6-dioxopiperidin-3-yl)-5-(4-(2-(4-(((5-fluoro-4-oxo-2-(((tetrahydro-2H-pyran-4-yl)thio)methyl)-3,4-dihydroquinazolin-7-yl)oxy)methyl)piperidin-1-yl)ethyl)piperazin-1-yl)isoindoline-1,3-dione]	–
< 100	O=C1CCC(Nc2cccc(N3CCN(CCN4CCC(COc5cc(F)c6c(=O)[nH]c(CSC7CCOCC7)nc6c5)CC4)CC3)c2)C(=O)N1 (centres unmarked) [Example 63, 3-((3-(4-(2-(4-(((5-fluoro-4-oxo-2-(((tetrahydro-2H-pyran-4-yl)thio)methyl)-3,4-dihydroquinazolin-7-yl)oxy)methyl)piperidin-1-yl)ethyl)piperazin-1-yl)phenyl)amino)piperidine-2,6-dione]	–
< 100	O=C1CCC(Oc2ccc(N3CCN(CCN4CCC(COc5cc(F)c6c(=O)[nH]c(CSC7CCOCC7)nc6c5)CC4)CC3)cc2)C(=O)N1 (centres unmarked) [Example 65, 3-(4-(4-(2-(4-(((5-fluoro-4-oxo-2-(((tetrahydro-2H-pyran-4-yl)thio)methyl)-3,4-dihydroquinazolin-7-yl)oxy)methyl)piperidin-1-yl)ethyl)piperazin-1-yl)phenoxy)piperidine-2,6-dione]	–
< 100	CN(c1ccc(N2CCN(CCN3CCC(COc4cc(F)c5c(=O)[nH]c(CSC6CCOCC6)nc5c4)CC3)CC2)cc1)C1CCC(=O)NC1=O (centres unmarked) [Example 66, 3-((4-(4-(2-(4-(((5-fluoro-4-oxo-2-(((tetrahydro-2H-pyran-4-yl)thio)methyl)-3,4-dihydroquinazolin-7-yl)oxy)methyl)piperidin-1-yl)ethyl)piperazin-1-yl)phenyl)(methyl)amino)piperidine-2,6-dione]	–
< 100	O=C1CCC(Nc2cccc(C3CCN(CCN4CCC(COc5cc(F)c6c(=O)[nH]c(CSC7CCOCC7)nc6c5)CC4)CC3)c2)C(=O)N1 (centres unmarked) [Example 67, 3-((3-(1-(2-(4-(((5-fluoro-4-oxo-2-(((tetrahydro-2H-pyran-4-yl)thio)methyl)-3,4-dihydroquinazolin-7-yl)oxy)methyl)piperidin-1-yl)ethyl)piperidin-4-yl)phenyl)amino)piperidine-2,6-dione]	–
< 100	O=C1CCC(Nc2ccc(N3CCN(CCN4CCC(COc5cc(F)c6c(=O)[nH]c(COC7CCOCC7)nc6c5)CC4)CC3)cc2)C(=O)N1 (centres unmarked) [Example 68, 3-((4-(4-(2-(4-(((5-fluoro-4-oxo-2-(((tetrahydro-2H-pyran-4-yl)oxy)methyl)-3,4-dihydroquinazolin-7-yl)oxy)methyl)piperidin-1-yl)ethyl)piperazin-1-yl)phenyl)amino)piperidine-2,6-dione]	–
< 100	O=C1CCC(Nc2ccc(N3CCN(CCN4CCC(COc5cc(F)c6c(=O)[nH]c(CSC7CCOCC7)nc6c5)CC4)CC3)nc2)C(=O)N1 (centres unmarked) [Example 69, 3-((6-(4-(2-(4-(((5-fluoro-4-oxo-2-(((tetrahydro-2H-pyran-4-yl)thio)methyl)-3,4-dihydroquinazolin-7-yl)oxy)methyl)piperidin-1-yl)ethyl)piperazin-1-yl)pyridin-3-yl)amino)piperidine-2,6-dione]	–
< 100	O=C1CCN(c2ccc(N3CCN(CCN4CCC(COc5cc(F)c6c(=O)[nH]c(CSC7CCOCC7)nc6c5)CC4)CC3)cc2)C(=O)N1 [Example 70, 1-(4-(4-(2-(4-(((5-fluoro-4-oxo-2-(((tetrahydro-2H-pyran-4-yl)thio)methyl)-3,4-dihydroquinazolin-7-yl)oxy)methyl)piperidin-1-yl)ethyl)piperazin-1-yl)phenyl)dihydropyrimidine-2,4(1H,3H)-dione]	–
